For assay [1], the target named is T1, CD73 (Homo sapiens (Human), UniProt P21589). As to the kind of experiment: MDA-MB-231 Cell Based CD73 Activity Assay (DMEM). Conditions: MDA-MB-231-GFP cells, DMEM medium with 10% human plasma, 200 uM AMP.
Assay [2] deals with T1, CD73. In words: MDA-MB-231 Cell Based CD73 Activity Assay. Conditions: MDA-MB-231-GFP cells, RPMI medium with 10% human plasma, 200 uM AMP.
Assay [3] addresses T1, CD73. In words: CD73 Biochemical IC50 Assay. As to conditions: CD73 0.3 nM, AMP 15 uM, 25 mM Tris pH 7.4, 5 mM MgCl2. How it is done: CD73 Biochemical IC50 Assay
Compound serial dilutions were pre-spotted into Thermo Nunc assay plate. 50 μL CD73 enzyme buffer (CD73 purchased from R&D system=0.6 nM, 25 mM Tris, pH 7.4, 5 mM MgCl2) was added into the assay plate and incubated for 15 mins. […] The samples were run using Rapid fire.

For assay [4], the target named is T1, CD73. The format is biochemical. As to conditions: 1 mM NaH2PO4 in enzyme buffer, CD73 0.3 nM, AMP 15 uM.

pEC50, pIC50: −log10 of the molar value. Several values for one entry are separate records, joined by “and”; a condition that tells them apart may be missing. Identical values can stand only once. Like-named read-outs stand apart in the source and are kept apart here.

T1 sequence (P21589 27-574): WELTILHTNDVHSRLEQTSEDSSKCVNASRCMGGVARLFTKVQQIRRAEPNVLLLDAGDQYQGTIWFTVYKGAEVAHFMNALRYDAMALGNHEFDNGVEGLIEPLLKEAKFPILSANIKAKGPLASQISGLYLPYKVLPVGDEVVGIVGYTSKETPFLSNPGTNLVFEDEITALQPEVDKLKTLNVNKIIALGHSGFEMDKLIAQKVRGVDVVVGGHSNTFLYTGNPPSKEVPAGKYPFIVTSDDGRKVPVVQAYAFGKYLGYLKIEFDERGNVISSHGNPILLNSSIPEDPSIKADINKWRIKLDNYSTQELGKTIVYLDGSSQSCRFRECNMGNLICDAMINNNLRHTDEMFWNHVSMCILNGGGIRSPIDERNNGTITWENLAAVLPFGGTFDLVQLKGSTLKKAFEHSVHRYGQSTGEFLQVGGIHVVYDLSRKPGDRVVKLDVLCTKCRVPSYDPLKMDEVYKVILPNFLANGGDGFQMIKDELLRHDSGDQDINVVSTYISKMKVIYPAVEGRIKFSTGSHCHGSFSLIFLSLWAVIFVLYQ

For `O=c1[nH]cc(-c2cc([C@H]3C[C@@H]3c3ccccc3)c3nccn3n2)c(=O)[nH]1` (racemic) [Example 7, 5-(8-((1S,2S)-2-phenylcyclopropyl)imidazo[1,2-b]pyridazin-6-yl)pyrimidine-2,4-(1H,3H)-dione and 5-(8-((1R,2R)-2-phenylcyclopropyl)imidazo[1,2-b]pyridazin-6-yl)pyrimidine-2,4-(1H,3H)-dione], the pEC50 – broadly, −log10 of the EC50, conventionally taken in molar units – at CD73 [1] is 8.38; on CD73 [2] it was 8.68 and 8.73. Also, the pIC50 – broadly, −log10 of the IC50, conventionally taken in molar units – is 7.87 and 7.89 against CD73 [3]; 9.03 against CD73 [4].
The compound `O=c1[nH]cc(-c2cc([C@H]3C[C@@H]3c3ccc(C(F)(F)F)cc3)c3nccn3n2)c(=O)[nH]1` (racemic) [Example 42, 5-[8-[(1S,2S)-2-[4-(trifluoromethyl)phenyl]cyclopropyl]imidazo[1,2-b]pyridazin-6-yl]-1H-pyrimidine-2,4-dione and 5-[8-[(1R,2R)-2-[4-(trifluoromethyl)phenyl]cyclopropyl]imidazo[1,2-b]pyridazin-6-yl]-1H-pyrimidine-2,4-dione] showed a pEC50 at CD73 [2] of 8.12. The results for the pIC50 against CD73 [3] and at CD73 [4] were 7.54 and 8.68, respectively.
Take `O=c1[nH]cc(-c2cc([C@H]3C[C@@H]3c3ccccn3)c3nccn3n2)c(=O)[nH]1` (racemic) [Example 52, 5-[8-[(1S,2S)-2-(2-pyridyl)cyclopropyl]imidazo[1,2-b]pyridazin-6-yl]-1H-pyrimidine-2,4-dione and 5-[8-[(1R,2R)-2-(2-pyridyl)cyclopropyl]imidazo[1,2-b]pyridazin-6-yl]-1H-pyrimidine-2,4-dione]: at CD73 [2], the pEC50 was 8.57. In addition, the results for the negative-log IC50 (pIC50) against CD73 [3] and on CD73 [4] were 7.70 and 8.94, respectively.
For `O=c1[nH]cc(-c2cc([C@H]3C[C@@H]3c3cccnc3)c3nccn3n2)c(=O)[nH]1` (racemic) [Example 53, 5-[8-[(1S,2S)-2-(3-pyridyl)cyclopropyl]imidazo[1,2-b]pyridazin-6-yl]-1H-pyrimidine-2,4-dione and 5-[8-[(1R,2R)-2-(3-pyridyl)cyclopropyl]imidazo[1,2-b]pyridazin-6-yl]-1H-pyrimidine-2,4-dione], in that order: 8.29, 7.68 and 8.82.
For `O=c1[nH]cc(-c2cc([C@H]3C[C@@H]3c3ccncc3)c3nccn3n2)c(=O)[nH]1` (racemic) [Example 54, 5-[8-[(1S,2S)-2-(4-pyridyl)cyclopropyl]imidazo[1,2-b]pyridazin-6-yl]-1H-pyrimidine-2,4-dione and 5-[8-[(1R,2R)-2-(4-pyridyl)cyclopropyl]imidazo[1,2-b]pyridazin-6-yl]-1H-pyrimidine-2,4-dione], in that order: 8.47, 7.75 and 8.70.
Turning to `Cc1nc2c(C3CCC(F)(F)CC3)cc(-c3c[nH]c(=O)[nH]c3=O)nn2n1` [Example 55, 5-(8-(4,4-difluorocyclohexyl)-2-methyl-[1,2,4]triazolo[1,5-b]pyridazin-6-yl)pyrimidine-2,4(1H,3H)-dione], the negative logarithm of the EC50 (pEC50) on CD73 [2] was 6.06. The same compound showed a pIC50 against CD73 [3] of less than 5.60.
For `N#Cc1cnc2c(C3CCC(F)(F)CC3)cc(-c3c[nH]c(=O)[nH]c3=O)nn12` [Example 56, 8-(4,4-difluorocyclohexyl)-6-(2,4-dioxo-1,2,3,4-tetrahydropyrimidin-5-yl)imidazo[1,2-b]pyridazine-3-carbonitrile] the same measures were 5.35 and less than 5.60.
On CD73 [2], `Cc1cnc2c(C3CCC(F)(F)CC3)cc(-c3c[nH]c(=O)[nH]c3=O)nn12` [Example 57, 5-(8-(4,4-difluorocyclohexyl)-3-methylimidazo[1,2-b]pyridazin-6-yl)pyrimidine-2,4(1H,3H)-dione] gave a negative-log EC50 (pEC50) of 5.48. This compound had a pIC50 against CD73 [3] of less than 5.60.
`O=c1[nH]cc(-c2cc(COCc3ccccc3)c3nccn3n2)c(=O)[nH]1` [Example 58, 5-(8-((benzyloxy)methyl)imidazo[1,2-b]pyridazin-6-yl)pyrimidine-2,4(1H,3H)-dione] gave a pEC50 at CD73 [2] of 6.15. The compound also gave a pIC50 against CD73 [3] of 6.26.
For the compound `O=c1[nH]cc(-c2cc(N3CC(c4ccccc4)C3)c3nccn3n2)c(=O)[nH]1` [Example 59, 5-(8-(3-phenylazetidin-1-yl)imidazo[1,2-b]pyridazin-6-yl)pyrimidine-2,4(1H,3H)-dione], the pEC50 at CD73 [2] was 7.14. The compound also showed a pIC50 at CD73 [3] of 7.19.
`O=c1[nH]cc(-c2cc(N3CCC3c3ccccc3)c3nccn3n2)c(=O)[nH]1` (stereo not drawn) [Example 66, 5-(8-(2-phenylazetidin-1-yl)imidazo[1,2-b]pyridazin-6-yl)pyrimidine-2,4(1H,3H)-dione] gave a pEC50 on CD73 [2] of 5.35. In addition, the pIC50 at CD73 [3] is less than 5.60.
At CD73 [2], `O=c1[nH]cc(-c2cc(C3CC3)c3ncc(F)n3n2)c(=O)[nH]1` [Example 69, 5-(8-cyclopropyl-3-fluoro-imidazo[1,2-b]pyridazin-6-yl)-1H-pyrimidine-2,4-dione] showed a negative-log EC50 (pEC50) of 7.32. This compound also gave a pIC50 at CD73 [3] of 7.26.
Regarding `O=c1[nH]cc(-c2cc(-c3ccc(NCC4CC4)cc3)c3nccn3n2)c(=O)[nH]1` [Example 71, 5-[8-[4-(cyclopropylmethylamino)phenyl]imidazo[1,2-b]pyridazin-6-yl]-1H-pyrimidine-2,4-dione], on CD73 [2], the negative-log EC50 (pEC50) is 6.19. The same compound showed a negative logarithm of the IC50 (pIC50) against CD73 [3] of 5.83.
`O=c1[nH]cc(-c2cc(C3CC3)c3nc(C4CC4)cn3n2)c(=O)[nH]1` [Example 75, 5-(2,8-dicyclopropylimidazo[1,2-b]pyridazin-6-yl)-1H-pyrimidine-2,4-dione] had a pEC50 at CD73 [2] of 6.87. Also, the pIC50 against CD73 [3] is 6.90.
On CD73 [2], `O=c1[nH]cc(-c2cc(-n3cccn3)c3nccn3n2)c(=O)[nH]1` [Example 78, 5-(8-pyrazol-1-ylimidazo[1,2-b]pyridazin-6-yl)-1H-pyrimidine-2,4-dione] had a negative-log EC50 (pEC50) of 5.91. The pIC50 at CD73 [3] was 5.72.
With `O=c1[nH]cc(-c2cc([C@H]3C[C@@H]3c3ccc(F)cc3F)c3ncc(F)n3n2)c(=O)[nH]1` [Example 88, 5-[8-[(1S,2S)-2-(2,4-difluorophenyl)cyclopropyl]-3-fluoro-imidazo[1,2-b]pyridazin-6-yl]-1H-pyrimidine-2,4-dione], the pEC50 on CD73 [2] is 8.53. For the same compound, the pIC50 against CD73 [3] is 8.04.
For the compound `CC1(C)CCN(c2cc(-c3c[nH]c(=O)[nH]c3=O)nn3ccnc23)CC1` [Example 89, 5-[8-(4,4-dimethyl-1-piperidyl)imidazo[1,2-b]pyridazin-6-yl]-1H-pyrimidine-2,4-dione], the negative logarithm of the EC50 (pEC50) on CD73 [2] was 6.61. On CD73 [3], this compound had a negative-log IC50 (pIC50) of 6.67.
Compound `O=c1[nH]cc(-c2cc([C@H]3C[C@@H]3c3ccc(F)c(F)c3)c3ncc(F)n3n2)c(=O)[nH]1` [Example 90, 5-[8-[(1S,2S)-2-(3,4-difluorophenyl)cyclopropyl]-3-fluoro-imidazo[1,2-b]pyridazin-6-yl]-1H-pyrimidine-2,4-dione] gave a negative logarithm of the EC50 (pEC50) at CD73 [2] of 8.75. At CD73 [3], the negative-log IC50 (pIC50) was 8.00.
Regarding `CC1(C)CCN(c2cc(-c3c[nH]c(=O)[nH]c3=O)nc3ccnn23)C1` [Example 91, 5-(7-(3,3-dimethylpyrrolidin-1-yl)pyrazolo[1,5-a]pyrimidin-5-yl)pyrimidine-2,4(1H,3H)-dione], the pEC50 at CD73 [2] is 7.21. The compound further showed a pIC50 at CD73 [3] of 6.98.
At CD73 [2], `CC1(C)CCN(c2cc(-c3c[nH]c(=O)[nH]c3=O)nc3ncnn23)C1` [Example 92, 5-(7-(3,3-dimethylpyrrolidin-1-yl)-[1,2,4]triazolo[1,5-a]pyrimidin-5-yl)pyrimidine-2,4(1H,3H)-dione] had a pEC50 of 7.63. The pIC50 was 7.81 against CD73 [3] and 8.18 at CD73 [4].
Consider `O=c1[nH]cc(-c2cc(N3CC4CCC(C4)C3)c3nccn3n2)c(=O)[nH]1` [Example 94, 5-(8-(3-azabicyclo[3.2.1]octan-3-yl)imidazo[1,2-b]pyridazin-6-yl)pyrimidine-2,4(1H,3H)-dione], for which the pEC50 on CD73 [2] is 7.12. The compound also gave a pIC50 at CD73 [3] of 6.88.
For `O=c1[nH]cc(-c2cc(C3CC3)c3nc(-c4ccccc4C(F)(F)F)cn3n2)c(=O)[nH]1` [Example 96, 5-(8-cyclopropyl-2-(2-(trifluoromethyl)phenyl)imidazo[1,2-b]pyridazin-6-yl)pyrimidine-2,4(1H,3H)-dione] the same measures were 7.18 and 6.11.
For the compound `O=c1[nH]cc(-c2cc(C3CC3)c3nc(-c4ccncc4)cn3n2)c(=O)[nH]1` [Example 97, 5-(8-cyclopropyl-2-(pyridin-4-yl)imidazo[1,2-b]pyridazin-6-yl)pyrimidine-2,4(1H,3H)-dione], the pEC50 at CD73 [2] was 5.69. Further, the pIC50 against CD73 [3] was less than 5.60.
`O=c1[nH]cc(-c2cc(C3CC3)c3nc(-c4cccnc4)cn3n2)c(=O)[nH]1` [Example 102, 5-(8-cyclopropyl-2-(pyridin-3-yl)imidazo[1,2-b]pyridazin-6-yl)pyrimidine-2,4(1H,3H)-dione]: at CD73 [2], the pEC50 was 6.59. This compound also had a pIC50 against CD73 [3] of 6.33.
For `O=c1[nH]cc(-c2cc(C3CC3)c3nc(-c4ccccn4)cn3n2)c(=O)[nH]1` [Example 103, 5-(8-cyclopropyl-2-(pyridin-2-yl)imidazo[1,2-b]pyridazin-6-yl)pyrimidine-2,4(1H,3H)-dione] the same measures were 7.35 and 7.15.
As for `O=c1[nH]cc(-c2cc(N3CC(F)(F)C(F)(F)C3)c3nccn3n2)c(=O)[nH]1` [Example 109, 5-(8-(3,3,4,4-tetrafluoropyrrolidin-1-yl)imidazo[1,2-b]pyridazin-6-yl)pyrimidine-2,4(1H,3H)-dione], the pEC50 at CD73 [2] is 7.89. Also, the results for the negative-log IC50 (pIC50) against CD73 [3] and against CD73 [4] were 7.35 and 8.53, respectively.

The values above are taken from patent publication US20240043427A1 (Gilead Sciences, Inc., priority 2020, published 2024).
